± gives the expanded uncertainty stated by the source.
Assay: xn = mol fraction of the nth substance listed
Conditions: 102 kPa, Liquid; for viscosity: Concentric cylinders viscometry; for speed of sound: Frequency=3 MHz, Single path-length method; for mass density: Vibrating tube method

CCCC1CCCCC1 [1-cyclohexylpropane] + CCCCCCCCCCCCCCCC
viscosity (293.15 K, x1 = 0.2001): 2.9 ± 0.02 mPa·s
viscosity (293.15 K, x1 = 0.4008): 2.35 ± 0.02 mPa·s
viscosity (293.15 K, x1 = 0.5001): 2.11 ± 0.01 mPa·s
viscosity (293.15 K, x1 = 0.6009): 1.85 ± 0.01 mPa·s
viscosity (293.15 K, x1 = 0.8301): 1.34 ± 0.01 mPa·s
viscosity (293.15 K, x1 = 1): 0.996 ± 0.012 mPa·s
speed of sound (293.15 K, x1 = 0.2001): 1349.9 ± 0.6 m/s
speed of sound (293.15 K, x1 = 0.4008): 1341.6 ± 0.6 m/s
speed of sound (293.15 K, x1 = 0.5001): 1336.9 ± 0.6 m/s
speed of sound (293.15 K, x1 = 0.6009): 1331.7 ± 0.6 m/s
speed of sound (293.15 K, x1 = 0.8301): 1318.8 ± 0.6 m/s
speed of sound (293.15 K, x1 = 1): 1307.8 ± 0.6 m/s
mass density (293.15 K, x1 = 0.2001): 775.57 ± 0.81 kg/m3
mass density (293.15 K, x1 = 0.4008): 778.35 ± 0.81 kg/m3
mass density (293.15 K, x1 = 0.5001): 779.98 ± 0.81 kg/m3
mass density (293.15 K, x1 = 0.6009): 781.97 ± 0.81 kg/m3
mass density (293.15 K, x1 = 0.8301): 787.65 ± 0.81 kg/m3
mass density (293.15 K, x1 = 1): 793.54 ± 0.81 kg/m3
viscosity (303.15 K, x1 = 0.2001): 2.34 ± 0.02 mPa·s
viscosity (303.15 K, x1 = 0.4008): 1.94 ± 0.01 mPa·s
viscosity (303.15 K, x1 = 0.5001): 1.74 ± 0.01 mPa·s
viscosity (303.15 K, x1 = 0.6009): 1.55 ± 0.01 mPa·s
viscosity (303.15 K, x1 = 0.8301): 1.14 ± 0.01 mPa·s
viscosity (303.15 K, x1 = 1): 0.86 ± 0.012 mPa·s
speed of sound (303.15 K, x1 = 0.2001): 1312.1 ± 0.6 m/s
speed of sound (303.15 K, x1 = 0.4008): 1303.8 ± 0.6 m/s
speed of sound (303.15 K, x1 = 0.5001): 1298.4 ± 0.6 m/s
speed of sound (303.15 K, x1 = 0.6009): 1293.3 ± 0.6 m/s
speed of sound (303.15 K, x1 = 0.8301): 1279.2 ± 0.6 m/s
speed of sound (303.15 K, x1 = 1): 1266.2 ± 0.6 m/s
mass density (303.15 K, x1 = 0.2001): 768.58 ± 0.81 kg/m3
mass density (303.15 K, x1 = 0.4008): 771.27 ± 0.81 kg/m3
mass density (303.15 K, x1 = 0.5001): 772.84 ± 0.81 kg/m3
mass density (303.15 K, x1 = 0.6009): 774.74 ± 0.81 kg/m3
mass density (303.15 K, x1 = 0.8301): 780.16 ± 0.81 kg/m3
mass density (303.15 K, x1 = 1): 785.73 ± 0.81 kg/m3
viscosity (313.15 K, x1 = 0.2001): 1.93 ± 0.01 mPa·s
viscosity (313.15 K, x1 = 0.4008): 1.61 ± 0.01 mPa·s
viscosity (313.15 K, x1 = 0.5001): 1.46 ± 0.01 mPa·s
viscosity (313.15 K, x1 = 0.6009): 1.31 ± 0.01 mPa·s
viscosity (313.15 K, x1 = 0.8301): 0.975 ± 0.012 mPa·s
viscosity (313.15 K, x1 = 1): 0.75 ± 0.012 mPa·s
speed of sound (313.15 K, x1 = 0.2001): 1275.2 ± 0.6 m/s
speed of sound (313.15 K, x1 = 0.4008): 1266.6 ± 0.6 m/s
speed of sound (313.15 K, x1 = 0.5001): 1260.8 ± 0.6 m/s
speed of sound (313.15 K, x1 = 0.6009): 1255.6 ± 0.6 m/s
speed of sound (313.15 K, x1 = 0.8301): 1240.3 ± 0.6 m/s
speed of sound (313.15 K, x1 = 1): 1225.6 ± 0.6 m/s
mass density (313.15 K, x1 = 0.2001): 761.59 ± 0.81 kg/m3
mass density (313.15 K, x1 = 0.4008): 764.18 ± 0.81 kg/m3
mass density (313.15 K, x1 = 0.5001): 765.69 ± 0.81 kg/m3
mass density (313.15 K, x1 = 0.6009): 767.5 ± 0.81 kg/m3
mass density (313.15 K, x1 = 0.8301): 772.64 ± 0.81 kg/m3
mass density (313.15 K, x1 = 1): 777.9 ± 0.81 kg/m3
viscosity (323.15 K, x1 = 0.2001): 1.61 ± 0.01 mPa·s
viscosity (323.15 K, x1 = 0.4008): 1.37 ± 0.01 mPa·s
viscosity (323.15 K, x1 = 0.5001): 1.25 ± 0.01 mPa·s
viscosity (323.15 K, x1 = 0.6009): 1.13 ± 0.01 mPa·s
viscosity (323.15 K, x1 = 0.8301): 0.858 ± 0.012 mPa·s
viscosity (323.15 K, x1 = 1): 0.663 ± 0.011 mPa·s
speed of sound (323.15 K, x1 = 0.2001): 1239 ± 0.6 m/s
speed of sound (323.15 K, x1 = 0.4008): 1230 ± 0.6 m/s
speed of sound (323.15 K, x1 = 0.5001): 1224 ± 0.6 m/s
speed of sound (323.15 K, x1 = 0.6009): 1218.5 ± 0.6 m/s
speed of sound (323.15 K, x1 = 0.8301): 1202 ± 0.6 m/s
speed of sound (323.15 K, x1 = 1): 1185.9 ± 0.6 m/s
mass density (323.15 K, x1 = 0.2001): 754.61 ± 0.81 kg/m3
mass density (323.15 K, x1 = 0.4008): 757.08 ± 0.81 kg/m3
mass density (323.15 K, x1 = 0.5001): 758.53 ± 0.81 kg/m3
mass density (323.15 K, x1 = 0.6009): 760.24 ± 0.81 kg/m3
mass density (323.15 K, x1 = 0.8301): 765.09 ± 0.81 kg/m3
mass density (323.15 K, x1 = 1): 770.04 ± 0.81 kg/m3
viscosity (333.15 K, x1 = 0.2001): 1.37 ± 0.01 mPa·s
viscosity (333.15 K, x1 = 0.4008): 1.18 ± 0.01 mPa·s
viscosity (333.15 K, x1 = 0.5001): 1.07 ± 0.01 mPa·s
viscosity (333.15 K, x1 = 0.6009): 0.97 ± 0.012 mPa·s
viscosity (333.15 K, x1 = 0.8301): 0.747 ± 0.012 mPa·s
viscosity (333.15 K, x1 = 1): 0.584 ± 0.011 mPa·s
speed of sound (333.15 K, x1 = 0.2001): 1203.8 ± 0.6 m/s
speed of sound (333.15 K, x1 = 0.4008): 1194.3 ± 0.6 m/s
speed of sound (333.15 K, x1 = 0.5001): 1188 ± 0.6 m/s
speed of sound (333.15 K, x1 = 0.6009): 1182.1 ± 0.6 m/s
speed of sound (333.15 K, x1 = 0.8301): 1164.5 ± 0.6 m/s
speed of sound (333.15 K, x1 = 1): 1147.3 ± 0.6 m/s
mass density (333.15 K, x1 = 0.2001): 747.61 ± 0.81 kg/m3
mass density (333.15 K, x1 = 0.4008): 749.96 ± 0.81 kg/m3
mass density (333.15 K, x1 = 0.5001): 751.33 ± 0.81 kg/m3
mass density (333.15 K, x1 = 0.6009): 752.95 ± 0.81 kg/m3
mass density (333.15 K, x1 = 0.8301): 757.51 ± 0.81 kg/m3
mass density (333.15 K, x1 = 1): 762.12 ± 0.81 kg/m3
viscosity (343.15 K, x1 = 0.2001): 1.19 ± 0.01 mPa·s
viscosity (343.15 K, x1 = 0.4008): 1.03 ± 0.01 mPa·s
viscosity (343.15 K, x1 = 0.5001): 0.946 ± 0.012 mPa·s
viscosity (343.15 K, x1 = 0.6009): 0.863 ± 0.012 mPa·s
viscosity (343.15 K, x1 = 0.8301): 0.673 ± 0.011 mPa·s
viscosity (343.15 K, x1 = 1): 0.544 ± 0.011 mPa·s
mass density (343.15 K, x1 = 0.2001): 740.6 ± 0.8 kg/m3
mass density (343.15 K, x1 = 0.4008): 742.9 ± 0.8 kg/m3
mass density (343.15 K, x1 = 0.5001): 744.1 ± 0.8 kg/m3
mass density (343.15 K, x1 = 0.6009): 745.6 ± 0.8 kg/m3
mass density (343.15 K, x1 = 0.8301): 749.8 ± 0.8 kg/m3
mass density (343.15 K, x1 = 1): 754.2 ± 0.8 kg/m3
viscosity (353.15 K, x1 = 0.2001): 1.02 ± 0.01 mPa·s
viscosity (353.15 K, x1 = 0.4008): 0.905 ± 0.012 mPa·s
viscosity (353.15 K, x1 = 0.5001): 0.834 ± 0.012 mPa·s
viscosity (353.15 K, x1 = 0.6009): 0.764 ± 0.012 mPa·s
viscosity (353.15 K, x1 = 0.8301): 0.594 ± 0.011 mPa·s
viscosity (353.15 K, x1 = 1): 0.477 ± 0.011 mPa·s
mass density (353.15 K, x1 = 0.2001): 733.6 ± 0.8 kg/m3
mass density (353.15 K, x1 = 0.4008): 735.7 ± 0.8 kg/m3
mass density (353.15 K, x1 = 0.5001): 736.9 ± 0.8 kg/m3
mass density (353.15 K, x1 = 0.6009): 738.3 ± 0.8 kg/m3
mass density (353.15 K, x1 = 0.8301): 742.2 ± 0.8 kg/m3
mass density (353.15 K, x1 = 1): 746.1 ± 0.8 kg/m3
viscosity (363.15 K, x1 = 0.2001): 0.918 ± 0.012 mPa·s
viscosity (363.15 K, x1 = 0.4008): 0.805 ± 0.012 mPa·s
viscosity (363.15 K, x1 = 0.5001): 0.746 ± 0.012 mPa·s
viscosity (363.15 K, x1 = 0.6009): 0.685 ± 0.011 mPa·s
viscosity (363.15 K, x1 = 0.8301): 0.503 ± 0.021 mPa·s
viscosity (363.15 K, x1 = 1): 0.452 ± 0.011 mPa·s
mass density (363.15 K, x1 = 0.2001): 726.5 ± 0.8 kg/m3
mass density (363.15 K, x1 = 0.4008): 728.5 ± 0.8 kg/m3
mass density (363.15 K, x1 = 0.5001): 729.5 ± 0.8 kg/m3
mass density (363.15 K, x1 = 0.6009): 730.8 ± 0.8 kg/m3
mass density (363.15 K, x1 = 0.8301): 734.6 ± 0.8 kg/m3
mass density (363.15 K, x1 = 1): 738 ± 0.8 kg/m3

Source: the NIST ThermoML archive (doi:10.1021/acs.jced.8b00692)
